Reference: US4461775A, “Hydroxythioether fatty acid derivatives” (McNeilab, Inc., priority 1982, dated 1984)

Tests used:
[1] = system: guinea pig ileum (SRS-A induced contraction); experiment: guinea pig ileum: prevention of the contraction of guinea pig ileum caused by SRS-A; assay type: cell-based; details: Cavia porcellus; SRS-A induced contraction of isolated guinea pig ileum; atropine and chlorpheniramine (1×10^-5 M) present; read-out: G.P. Ileum IC50
Protocol: The tissue is exposed to 5 mg/ml histamine at 1-3 minute intervals until a reproducible response is obtained. Atropine (1×10^-5 M) and chlorpheniramine (1×10^-5 M) are added followed by 1-2 biological units of SRS-A. After washing the tissue, the response to BaCl2 (1×10^-3 M) was also noted.

[2] = system: guinea pig parenchymal strip (immunological release of SRS-A); experiment: guinea pig parenchymal strip: prevention of the contraction of guinea pig parenchymal tissue by immunological release of SRS-A; assay type: cell-based; details: Cavia porcellus; egg albumin challenge of sensitized guinea pig lung strip; chlorpheniramine (10^-4 M), indomethacin (10^-5 M), test compound 30 minutes prior
Protocol: The guinea pigs were sacrificed and lungs removed. Strips of subpleural parenchyma were prepared from the left and right diaphragmatic lobes and suspended in a tissue bath under 1 g of tension. After a one hour equilibration period, a dose response to histamine (10^-7 to 10^-4 M) induced contractions was performed to determine maximal contraction. The tissues were then washed and allowed to relax to baseline. Chlorpheniramine (10^-4 M), indomethacin (10^-5 M) and test compound were added 30 minutes prior to challenge with egg albumin. The response to antigen was measured in milligrams of tension.

Structure (SMILES)	IC50 [1] [µM]	IC50 [2] [µM]
CCCCCCCCCCC[C@H](O)[C@H](CCCCC(=O)OC)SCCC(=O)OC (relative stereo) [Example 1, Threo Methyl 7-Hydroxy-6{[2-(methoxycarbonyl)ethyl]thio}octadecanoate]	1	> 100
CCCCCCCCCCC[C@H](O)[C@H](CCCCC(=O)O)SCCC(=O)O (relative stereo) [Example 2, Threo 6-(2-Carboxyethyl)thio-7-hydroxyoctadecanoic Acid]	0.24	80
CCCCCCCCCCC[C@H](O)[C@@H](CCCCC(=O)OC)SCCC(=O)OC (relative stereo) [Example 4, Erythro Methyl 7-Hydroxy-6-{[2-(methoxycarbonyl)ethyl]-thio}octadecanoate]		10
CCCCCCCCCCCC(O)C(CCCCC(=O)OC)SC[C@H](N)C(=O)OC (stereo partly drawn) [Example 3, Threo S-(6-Hydroxy-1-methoxycarbonyl-5-heptadecyl)-L-cysteine Methyl Ester]	1.3	> 100
